Assay results taken from ChEMBL document CHEMBL3352464, “X-ray crystallographic analysis of IMP-1 metallo-β-lactamase complexed with a 3-aminophthalic acid derivative, structure-based drug design, and synthesis of 3,6-disubstituted phthalic acid derivative inhibitors” (Bioorg Med Chem Lett, 2014).

How the values were obtained:
[1] = system: Pseudomonas aeruginosa; experiment: Inhibition of IMP-1 in mexAB-deficient Pseudomonas aeruginosa KG5002/pMS363 assessed as MIC of BIPM at 50 ug/ml by microbroth dilution method
[2] = Inhibition of carbapenems-resistant Pseudomonas aeruginosa PAO1/pMS363 IMP-1 using nitrocefin as substrate after 20 mins by spectrophotometric analysis
[3] = system: Pseudomonas aeruginosa; experiment: Inhibition of IMP-1 in Pseudomonas aeruginosa PAO1/pMS363 assessed as MIC of BIPM at 50 ug/ml by microbroth dilution method

Row | SMILES | MIC [1] [mg/L] | IC50 [2] [µM] | MIC [3] [mg/L]
1 | O=C(O)c1c(F)ccc(N2CCC(O)CC2)c1C(=O)O | 1 | 17.5 | 2
2 | Cc1ccc(N2CCC(O)CC2)c(C(=O)O)c1C(=O)O | < 0.25 | 0.7 | 1
3 | O=C(O)c1c(N2CCC(O)CC2)ccc(N2CCC(O)CC2)c1C(=O)O | < 0.25 | 0.27 | 0.5
4 | O=C(O)c1cccc(N2CCC(O)CC2)c1C(=O)O | < 0.25 | 2.7 | 1
5 | CN(C)c1ccc(N2CCC(O)CC2)c(C(=O)O)c1C(=O)O | < 0.25 | 4.1 | 1
